In BindingDB's records for patent US20250382289 (Xizang Haisco Pharmaceutical, 2025):
pIC50: −log10 of the molar value.

target: Ubiquitin carboxyl-terminal hydrolase 1/WD repeat-containing protein 48 (Homo sapiens, UniProt O94782); experiment: Inhibitory Activity on USP1/UAF1 Enzymology
Method: Ubiquitin rhodamine 110 was used as a substrate to detect the activity of the deubiquitinating enzyme USP1/UAF1 after drug treatment. The total test system was 20 μl, and the test buffer comprises 50 mM Tris-HCl (pH 7.8), 0.5 mM EDTA, 0.01% Bovine Serum Albumin, 1 mM DTT, and 0.01% Tween-20.

Chain of Ubiquitin carboxyl-terminal hydrolase 1/WD repeat-containing protein 48 (O94782 whole entry): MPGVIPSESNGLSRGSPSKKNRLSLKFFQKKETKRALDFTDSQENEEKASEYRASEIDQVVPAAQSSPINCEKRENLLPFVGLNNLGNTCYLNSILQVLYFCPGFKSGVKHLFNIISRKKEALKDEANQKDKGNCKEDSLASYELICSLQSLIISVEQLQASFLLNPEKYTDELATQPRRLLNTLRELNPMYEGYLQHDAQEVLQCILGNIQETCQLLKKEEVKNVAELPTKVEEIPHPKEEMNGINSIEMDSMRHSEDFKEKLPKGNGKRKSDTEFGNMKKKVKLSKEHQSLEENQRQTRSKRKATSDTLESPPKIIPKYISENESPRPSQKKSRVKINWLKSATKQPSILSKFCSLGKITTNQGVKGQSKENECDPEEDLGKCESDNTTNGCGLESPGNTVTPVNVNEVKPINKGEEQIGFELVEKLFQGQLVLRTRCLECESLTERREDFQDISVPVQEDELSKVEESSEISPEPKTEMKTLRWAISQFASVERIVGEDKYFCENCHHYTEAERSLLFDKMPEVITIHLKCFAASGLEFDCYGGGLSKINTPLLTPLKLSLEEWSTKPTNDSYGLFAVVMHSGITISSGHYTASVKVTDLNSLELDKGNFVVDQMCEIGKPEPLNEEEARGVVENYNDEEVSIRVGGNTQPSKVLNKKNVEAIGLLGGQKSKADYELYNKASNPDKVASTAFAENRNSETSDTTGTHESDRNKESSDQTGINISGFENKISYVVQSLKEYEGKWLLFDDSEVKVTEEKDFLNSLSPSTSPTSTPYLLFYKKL
Chain of Ubiquitin carboxyl-terminal hydrolase 1/WD repeat-containing protein 48 (Q8TAF3 whole entry, further chain): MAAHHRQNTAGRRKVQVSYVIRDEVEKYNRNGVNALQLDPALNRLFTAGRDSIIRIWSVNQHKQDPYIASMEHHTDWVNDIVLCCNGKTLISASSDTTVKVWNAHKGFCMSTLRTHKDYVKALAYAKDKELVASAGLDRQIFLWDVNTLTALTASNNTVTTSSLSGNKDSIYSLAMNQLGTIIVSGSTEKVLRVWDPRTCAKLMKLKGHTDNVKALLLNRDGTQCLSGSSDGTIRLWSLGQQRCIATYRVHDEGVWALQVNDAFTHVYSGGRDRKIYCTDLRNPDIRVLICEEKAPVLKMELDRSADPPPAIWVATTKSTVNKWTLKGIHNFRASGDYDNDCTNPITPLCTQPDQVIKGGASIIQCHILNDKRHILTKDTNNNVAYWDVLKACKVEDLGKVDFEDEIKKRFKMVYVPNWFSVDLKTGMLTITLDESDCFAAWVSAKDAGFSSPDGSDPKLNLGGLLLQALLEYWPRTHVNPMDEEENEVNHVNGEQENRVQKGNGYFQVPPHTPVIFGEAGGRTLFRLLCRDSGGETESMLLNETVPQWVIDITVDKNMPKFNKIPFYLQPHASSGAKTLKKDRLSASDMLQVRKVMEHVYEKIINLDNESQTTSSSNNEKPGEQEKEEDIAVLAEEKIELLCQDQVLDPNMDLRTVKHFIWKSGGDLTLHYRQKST

Row | pIC50 | Structure (SMILES)
1 | > 7.70 | Fc1c(-c2c(OC(F)F)ncnc2C2CC2)ncc2cnn(CC34CCC(c5nc(C(F)(F)F)cn5CC5CC5)(CC3)CC4)c12 [US20250382289, Compound 10]
2 | > 7.70 | Fc1c(-c2c(OC(F)F)ncnc2C2CC2)ncc2cnn(Cc3ccc(-c4nc(C(F)(F)F)c5n4CC4(CC4)C5)cc3)c12 [US20250382289, Compound 12]
3 | > 7.70 | Fc1c(-c2c(OC(F)F)ncnc2C2CC2)ncc2cnn(Cc3ccc(-c4nc(C(F)(F)F)c5n4CC(F)(F)C5)cc3)c12 [US20250382289, Compound 14]
4 | > 7.70 | C#CCn1cc(C(F)(F)F)nc1-c1ccc(Cn2ncc3cnc(-c4c(OC(F)F)ncnc4C4CC4)c(F)c32)cc1 [US20250382289, Compound 18]
5 | > 7.70 | CC#CCn1cc(C(F)(F)F)nc1-c1ccc(Cn2ncc3cnc(-c4c(OC(F)F)ncnc4C4CC4)c(F)c32)cc1 [US20250382289, Compound 19]
6 | > 7.70 | CC(C)n1cc(C(F)(F)F)nc1-c1ccc(Cn2ncc3cnc(-c4c(OC(F)F)ncnc4C4CC4)c(F)c32)cc1 [US20250382289, Compound 20]
7 | > 7.70 | COc1ncnc(C2CC2)c1-c1ncc2cnn(Cc3ccc(-c4nc(C(F)(F)F)c5n4CC4(CC4)C5)cc3)c2c1F [US20250382289, Compound 21]
